IC90 data for 21 compounds are collected here from US20230012368A1 (Hoffmann-La Roche Inc., priority 2018, published 2023).

Counter-ions that a name gives are not always drawn. Like-named read-outs stand apart in the source and are kept apart here.

The experiment has as its system Acinetobacter baumannii ATCC 17978. The experiment can be described thus: Antimicrobial susceptibility testing: 90% growth inhibitory concentration (IC90) determination. Type of experiment: cell-based. Conditions: 90% growth inhibitory concentration, Acinetobacter baumannii ATCC17978, Iso-Sensitest broth, OD 600 nm over 16h, read-out: ATCC17978 IC90. A digest of the protocol:
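Growth of the Acinetobacter baumannii strain was followed by optical density at 600 nm every 20 minutes for 16h at 35±2° C. Inoculum was ~5×10^(5) CFU/ml in Iso-Sensitest medium, with twofold compound dilutions (e.g. 50 to 0.097 μM final). The 90% inhibitory concentration was derived in log-phase growth.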

The mark [1] stands for this setting: Acinetobacter baumannii, ATCC17978, 16 h.

For `CCc1cc(Nc2nccn3c(-c4ccc(OC(F)F)c(F)c4F)cnc23)ccc1C(=O)NCC1(O)CNC1` [Example 307, 4-[[3-[4-(difluoromethoxy)-2,3-difluorophenyl]imidazo[1,2-a]pyrazin-8-yl]amino]-2-ethyl-N-[(3-hydroxyazetidin-3-yl)methyl]benzamide;hydro-chloride], under setting [1], the IC90 was determined as 620 nM.

Consider `CCc1cc(Nc2nccn3c(-c4ccc(OC)c(F)c4F)cnc23)ccc1C(=O)NC[C@H]1CCNC1` [Example 530, (S)-4-((3-(2,3-difluoro-4-methoxyphenyl)imidazo[1,2-a]pyrazin-8-yl)amino)-2-ethyl-N-(pyrrolidin-3-ylmethyl)benzamide hydrochloride], for which, under setting [1], the IC90 worked out at 110 nM.

As to `COc1ccc(-c2cnc3c(Nc4ccc(C(=O)N(C)CCN5CCNCC5)c(Cl)c4)nccn23)cc1F` [Example 90, 2-chloro-4-((3-(3-fluoro-4-methoxyphenyl)imidazo [1,2-a]pyrazin-8-yl)amino)-N-methyl-N-(2-(piperazin-1-yl)ethyl)benzamide hydrochloride], the IC90 worked out at 230 nM.

With `CCc1cc(Nc2nccn3c(-c4ccc(Oc5ccccn5)c(F)c4F)cnc23)ccc1C(=O)NCCNC(=O)CCN` [Example 421, N-[2-(3-aminopropanoylamino)ethyl]-4-[[3-[2,3-difluoro-4-(2-pyridyloxy)phenyl]imidazo [1,2-a]pyrazin-8-yl]amino]-2-ethyl-benzamide; formic acid], under setting [1], the IC90 came out at 440 nM.

Regarding `CC(=O)N1CCC(CCN(C)C(=O)c2ccc(Nc3nccn4c(-c5ccc(OC(F)F)cc5)cnc34)cc2C)CC1` [Example 204, N-[2-(1-acetylpiperidin-4-yl)ethyl]-4-[[3-[4-(difluoromethoxy)phenyl]im-idazo[1,2-a]pyrazin-8-yl]amino]-N,2-dimethylbenzamide], the concentration for an effect of 90% (IC90) under setting [1] was determined as 530 nM.

As to `COc1ccc(-c2cnc3c(Nc4ccc(C(=O)NCCCCCCN)c(Cl)c4)nccn23)c(F)c1F` [Example 495, N-(6-aminohexyl)-2-chloro-4-((3-(2,3-difluoro-4-methoxyphenyl)imidazo[1,2-a]pyrazin-8-yl)amino)benzamide hydrochloride], the IC90 under setting [1] was determined as 34 nM.

Regarding `N#CCOc1ccc(-c2cnc3c(Nc4ccc(C(=O)NCCCCN)c(Cl)c4)nccn23)c(F)c1F` [Example 519, N-(4-aminobutyl)-2-chloro-4-((3-(4-(cyanomethoxy)-2,3-difluorophenyl)imidazo[1,2-a]pyrazin-8-yl)amino)benzamide], the IC90 under setting [1] stood at 47 nM.

In the case of `Cc1cc(Nc2nccn3c(-c4ccc(OC(F)F)cc4)cnc23)ccc1C(=O)NC(C)(C)CN1CCOCC1` [Example 222, 4-[[3-[4-(difluoromethoxy)phenyl]im-idazo[1,2-a]pyrazin-8-yl]amino]-2-methyl-N-(2-methyl-1-morpholin-4-ylpropan-2-yl)benzamide], the IC90 under setting [1] was 1100 nM.

With `COc1ccc(-c2cnc3c(Nc4ccc(C(=O)NCC5CCNCC5)c(Cl)c4)nccn23)c(F)c1F` [Example 58, 2-chloro-4-[[3-(2,3-difluoro-4-methoxy-phenyl)imidazo[1,2-a]pyrazin-8-yl]amino]-N-(4-piperidylmethyl) benzamide], the 90% effect concentration (IC90) under setting [1] stood at 170 nM.

Turning to `COc1ccc(-c2cnc3c(Nc4ccc(C(=O)N(C)CCO)c(C)c4)nccn23)cc1` [Example 19, N-(2-hydroxyethyl)-4-((3-(4-methoxyphenyl)imidazo [1,2-a]pyrazin-8-yl)amino)-N,2-dimethylbenzamide], under setting [1], the 90% effect concentration (IC90) was 690 nM.

Regarding `COc1ccc(-c2cnc3c(Nc4ccc(C(=O)NCCCN5CCNCC5=O)c(C)c4)nccn23)c(F)c1F` [Example 69, 4-((3-(2,3-difluoro-4-methoxyphenyl)imidazo [1,2-a]pyrazin-8-yl)amino)-2-methyl-N-(3-(2-oxopiperazin-1-yl)propyl)benzamide], the IC90 under setting [1] is 270 nM.

On to `CCc1cc(Nc2nccn3c(-c4ccc(Oc5ncccn5)c(F)c4F)cnc23)ccc1C(=O)NCCCNC(=O)C1CCN(CC2CCNC2)CC1` (stereo not drawn) [Example 545, N-(3-(4-((3-(2,3-difluoro-4-(pyrimidin-2-yloxy)phenyl)imidazo[1,2-a]pyrazin-8-yl)amino)-2-ethylbenzamido)propyl)-1-(pyrrolidin-3-ylmethyl)piperidine-4-carboxamide formate], for which the IC90 under setting [1] came out at 310 nM.

Take `COc1ccc(-c2cnc3c(Nc4ccc(C(=O)NCCN5CCNC(=O)C5)c(C)c4)nccn23)cc1F` [Example 216, 4-[[3-(3-fluoro-4-methoxyphenyl)imidazo[1,2-a]pyrazin-8-yl]amino]-2-methyl-N-[2-(3-oxopiperazin-1-yl)ethyl]benzamide]: the IC90 under setting [1] was 770 nM.

On to `Cc1cc(Nc2nccn3c(-c4ccc(OC(F)F)cc4)cnc23)ccc1C(=O)NCCN1CCOCC1` [Example 230, 4-[[3-[4-(difluoromethoxy)phenyl]im-idazo[1,2-a]pyrazin-8-yl]amino]-2-methyl-N-(2-morpholin-4-ylethyl)benzamide], for which the IC90 under setting [1] came to 1200 nM.

On to `COc1ccc(-c2cnc3c(Nc4ccc(C(=O)N[C@H](CO)Cc5cnc[nH]5)c(C)c4)nccn23)cc1F` [Example 383, 4-[[3-(3-fluoro-4-methoxyphenyl)imidazo[1,2-a]pyrazin-8-yl]amino]-N-[(2S)-1-hydroxy-3-(1H-imidazol-5-yl)propan-2-yl]-2-methylbenzamide], for which the IC90 under setting [1] is 820 nM.

`CCc1cc(Nc2nccn3c(-c4ccc(OC)c(F)c4F)cnc23)ccc1C(=O)NCCNC(=O)[C@@H](N)CCCNC(N)=O` [Example 332, N-[2-[[(2S)-2-amino-5-(carbamoylamino)pentanoyl]amino]ethyl]-4-[[3-(2,3-difluoro-4-methoxyphenyl)imidazo[1,2-a]pyrazin-8-yl]amino]-2-ethylbenzamide]: the IC90 under setting [1] came to 320 nM.

Consider `COc1ccc(-c2cnc3c(Nc4ccc(C(=O)NCC5CCOCC5)c(Cl)c4)nccn23)c(F)c1F` [Example 40, 2-chloro-4-[[3-(2,3-difluoro-4-methoxy-phenyl)imidazo[1,2-a]pyrazin-8-yl]amino]-N-(tetrahydropyran-4-ylmethyl)benzamide; 2,2,2-trifluoroacetic acid], for which the IC90 turned out to be 180 nM.

Regarding `CNC(=O)c1ccc(Nc2nccn3c(-c4ccc(OC(F)F)cc4)cnc23)cc1CO` [Example 225, 4-[[3-[4-(difluoromethoxy)phenyl]im-idazo[1,2-a]pyrazin-8-yl]amino]-2-(hydroxymethyl)-N-methylbenzamide], under setting [1], the IC90 amounted to 1100 nM.

With `CCc1cc(Nc2nccn3c(-c4ccc(Cl)c(F)c4F)cnc23)ccc1C(=O)NCCNC(=O)[C@@H](N)CCCNC(=N)N` [Example 341, N-[2-[[(2S)-2-amino-5-carbamimidamidopentanoyl]amino]ethyl]-4-[[3-(4-chloro-2,3-difluorophenyl)imidazo[1,2-a]pyrazin-8-yl]amino]-2-ethylbenzamide], the IC90 under setting [1] was 650 nM.

For `Cc1cc(Nc2nccn3c(-c4ccc(OC(F)F)cc4)cnc23)ccc1C(=O)N(C)CCN1CCNCC1` [Example 45, 4-[[3-[4-(difluoromethoxy)phenyl]imidazo[1,2-a]pyrazin-8-yl]amino]-N,2-dimethyl-N-(2-piperazin-1-ylethyl)benzamide], the IC90 under setting [1] was determined as 350 nM.

Turning to `COc1ccc(-c2cnc3c(Nc4ccc(C(=O)N(C)CCO)cc4)nccn23)cc1` [Example 235, N-(2-hydroxyethyl)-4-[[3-(4-methoxyphenyl)imidazo[1,2-a]pyrazin-8-yl]amino]-N-methylbenzamide], the IC90 under setting [1] was determined as 1000 nM.
